Data published in ChEMBL document CHEMBL1287680, “C-11 diamino cryptolepine derivatives NSC748392, NSC748393, and NSC748394: anticancer profile and G-quadruplex stabilization” (Bioorg Med Chem Lett, 2010).

Legend:
[1] = test system: K562; experiment: cells; conditions: Homo sapiens
Description: Anticancer activity against human K562 cells

[2] = physchem
Description: Dissociation constant, pKa of the compound by UV-visible spectroscopy

[3] = test system: A549; experiment: cells; conditions: Homo sapiens
Description: Anticancer activity against human A549 cells

[4] = test system: 786-0; experiment: cells; conditions: Homo sapiens
Description: Anticancer activity against human 786-0 cells

[5] = test system: COLO 205; experiment: cells; conditions: Homo sapiens
Description: Anticancer activity against human COLO205 cells

[6] = test system: HT-29; experiment: cells; conditions: Homo sapiens
Description: Anticancer activity against human HT-29 cells

[7] = test system: SK-MEL-5; experiment: cells; conditions: Homo sapiens
Description: Anticancer activity against human SK-MEL-5 cells

[8] = test system: SK-MEL-28; experiment: cells; conditions: Homo sapiens
Description: Anticancer activity against human SK-MEL-28 cells

[9] = test system: OVCAR-5; experiment: cells; conditions: Homo sapiens
Description: Anticancer activity against human OVCAR5 cells

[10] = test system: OVCAR-8; experiment: cells; conditions: Homo sapiens
Description: Anticancer activity against human OVCAR8 cells

[11] = test system: RXF 393; experiment: cells; conditions: Homo sapiens
Description: Anticancer activity against human RXF393 cells

[12] = test system: Vero; experiment: cells; conditions: Chlorocebus sabaeus, 48 h
Description: Cytotoxicity against african green monkey Vero cells after 48 hrs by MTT assay

[13] = test system: NCI-H460; experiment: cells; conditions: Homo sapiens
Description: Anticancer activity against human NCI-H460 cells

[14] = test system: HCT-15; experiment: cells; conditions: Homo sapiens
Description: Anticancer activity against human HCT15 cells

[15] = test system: HCC 2998; experiment: cells; conditions: Homo sapiens
Description: Anticancer activity against human HCC2998 cells

[16] = test system: NCI-H522; experiment: cells; conditions: Homo sapiens
Description: Anticancer activity against human NCI-H522 cells

[17] = test system: KM12; experiment: cells; conditions: Homo sapiens
Description: Anticancer activity against human KM12 cells

[18] = test system: DU-145; experiment: cells; conditions: Homo sapiens
Description: Anticancer activity against human DU145 cells

[19] = test system: SW-620; experiment: cells; conditions: Homo sapiens
Description: Anticancer activity against human SW620 cells

[20] = test system: CAKI-1; experiment: cells; conditions: Homo sapiens
Description: Anticancer activity against human Caki1 cells

[21] = cells; conditions: Homo sapiens
Description: Anticancer activity against human RPMI8266 cells

[22] = test system: NCI-H322M; experiment: cells; conditions: Homo sapiens
Description: Anticancer activity against human NCI-H322M cells

[23] = test system: UO-31; experiment: cells; conditions: Homo sapiens
Description: Anticancer activity against human UO31 cells

[24] = test system: NCI-H226; experiment: cells; conditions: Homo sapiens
Description: Anticancer activity against human NCI-H226 cells

[25] = test system: T47D; experiment: cells; conditions: Homo sapiens
Description: Anticancer activity against human T47D cells

[26] = test system: SN12C; experiment: cells; conditions: Homo sapiens
Description: Anticancer activity against human SN12C cells

[27] = test system: MCF7; experiment: cells; conditions: Homo sapiens
Description: Anticancer activity against human MCF7 cells

[28] = test system: HCT-116; experiment: cells; conditions: Homo sapiens
Description: Anticancer activity against human HCT116 cells

[29] = test system: BT-549; experiment: cells; conditions: Homo sapiens
Description: Anticancer activity against human BT549 cells

[30] = test system: ACHN; experiment: cells; conditions: Homo sapiens
Description: Anticancer activity against human ACHN cells

SMILES: C[n+]1c2ccccc2c(NC2CCNCC2)c2[nH]c3ccccc3c21.[Cl-]
- GI50 ([1]; K562, read-out: pGI50 (converted)): 0.295 µM
- CC50 ([1]; K562, read-out: pLC50 (converted)): > 100 µM
- pKa [2]: 11.8
- GI50 ([3]; A549, read-out: pGI50 (converted)): 0.0776 µM
- CC50 ([3]; A549, read-out: pLC50 (converted)): > 100 µM
- TGI ([3]; A549, read-out: pTGI): 13.8 µM
- GI50 ([4]; 786-0, read-out: pGI50 (converted)): 3.47 µM
- CC50 ([4]; 786-0, read-out: pLC50 (converted)): > 100 µM
- TGI ([4]; 786-0, read-out: pTGI): 18.2 µM
- GI50 ([5]; COLO 205, read-out: pGI50 (converted)): 0.339 µM
- CC50 ([5]; COLO 205, read-out: pLC50 (converted)): 14.5 µM
- TGI ([5]; COLO 205, read-out: pTGI): 2.4 µM
- GI50 ([6]; HT-29, read-out: pGI50 (converted)): 0.209 µM
- CC50 ([6]; HT-29, read-out: pLC50 (converted)): 70.8 µM
- TGI ([6]; HT-29, read-out: pTGI): 10.2 µM
- GI50 ([7]; SK-MEL-5, read-out: pGI50 (converted)): 0.302 µM
- CC50 ([7]; SK-MEL-5, read-out: pLC50 (converted)): 4.68 µM
- TGI ([7]; SK-MEL-5, read-out: pTGI): 1.32 µM
- GI50 ([8]; SK-MEL-28, read-out: pGI50 (converted)): 1.05 µM
- CC50 ([8]; SK-MEL-28, read-out: pLC50 (converted)): 10.5 µM
- TGI ([8]; SK-MEL-28, read-out: pTGI): 3.24 µM
- GI50 ([9]; OVCAR-5, read-out: pGI50 (converted)): 1.66 µM
- CC50 ([9]; OVCAR-5, read-out: pLC50 (converted)): > 100 µM
- TGI ([9]; OVCAR-5, read-out: pTGI): 17 µM
- GI50 ([10]; OVCAR-8, read-out: pGI50 (converted)): 1.74 µM
- CC50 ([10]; OVCAR-8, read-out: pLC50 (converted)): 45.7 µM
- TGI ([10]; OVCAR-8, read-out: pTGI): 12.3 µM
- GI50 ([11]; RXF 393, read-out: pGI50 (converted)): 1.62 µM
- CC50 ([11]; RXF 393, read-out: pLC50 (converted)): 26.3 µM
- TGI ([11]; RXF 393, read-out: pTGI): 4.9 µM
- IC50 [12]: 10 µM
- GI50 ([13]; NCI-H460, read-out: pGI50 (converted)): 0.245 µM
- CC50 ([13]; NCI-H460, read-out: pLC50 (converted)): 22.4 µM
- TGI ([13]; NCI-H460, read-out: pTGI): 1.62 µM
- GI50 ([14]; HCT-15, read-out: pGI50 (converted)): 23.4 µM
- CC50 ([14]; HCT-15, read-out: pLC50 (converted)): > 100 µM
- TGI ([14]; HCT-15, read-out: pTGI): > 100 µM
- GI50 ([15]; HCC 2998, read-out: pGI50 (converted)): 0.324 µM
- CC50 ([15]; HCC 2998, read-out: pLC50 (converted)): 5.25 µM
- TGI ([15]; HCC 2998, read-out: pTGI): 1.7 µM
- GI50 ([16]; NCI-H522, read-out: pGI50 (converted)): 0.123 µM
- CC50 ([16]; NCI-H522, read-out: pLC50 (converted)): 3.31 µM
- TGI ([16]; NCI-H522, read-out: pTGI): 0.692 µM
- GI50 ([17]; KM12, read-out: pGI50 (converted)): 0.708 µM
- CC50 ([17]; KM12, read-out: pLC50 (converted)): > 100 µM
- TGI ([17]; KM12, read-out: pTGI): 10 µM
- GI50 ([18]; DU-145, read-out: pGI50 (converted)): 0.204 µM
- CC50 ([18]; DU-145, read-out: pLC50 (converted)): > 100 µM
- TGI ([18]; DU-145, read-out: pTGI): 10.2 µM
- GI50 ([19]; SW-620, read-out: pGI50 (converted)): 1.45 µM
- CC50 ([19]; SW-620, read-out: pLC50 (converted)): > 100 µM
- TGI ([19]; SW-620, read-out: pTGI): 10.7 µM
- GI50 ([20]; CAKI-1, read-out: pGI50 (converted)): 15.1 µM
- CC50 ([20]; CAKI-1, read-out: pLC50 (converted)): > 100 µM
- TGI ([20]; CAKI-1, read-out: pTGI): 60.3 µM
- GI50 ([21]; RPMI8266, read-out: pGI50 (converted)): 0.661 µM
- CC50 ([21]; RPMI8266, read-out: pLC50 (converted)): > 100 µM
- TGI ([21]; RPMI8266, read-out: pTGI): 3.89 µM
- GI50 ([22]; read-out: pGI50 (converted)): 0.372 µM
- CC50 ([22]; read-out: pLC50 (converted)): > 100 µM
- TGI ([22]; read-out: pTGI): 12 µM
- GI50 ([23]; UO-31, read-out: pGI50 (converted)): 13.2 µM
- CC50 ([23]; UO-31, read-out: pLC50 (converted)): > 100 µM
- TGI ([23]; UO-31, read-out: pTGI): 46.8 µM
- GI50 ([24]; NCI-H226, read-out: pGI50 (converted)): 0.537 µM
- CC50 ([24]; NCI-H226, read-out: pLC50 (converted)): 28.8 µM
- TGI ([24]; NCI-H226, read-out: pTGI): 3.24 µM
- GI50 ([25]; read-out: pGI50 (converted)): 0.234 µM
- CC50 ([25]; read-out: pLC50 (converted)): > 100 µM
- TGI ([25]; read-out: pTGI): 2.34 µM
- GI50 ([26]; read-out: pGI50 (converted)): 0.0295 µM
- CC50 ([26]; read-out: pLC50 (converted)): > 100 µM
- TGI ([26]; read-out: pTGI): 0.316 µM
- GI50 ([27]; MCF7, read-out: pGI50 (converted)): 0.224 µM
- CC50 ([27]; MCF7, read-out: pLC50 (converted)): > 100 µM
- TGI ([27]; MCF7, read-out: pTGI): 2.14 µM
- GI50 ([28]; HCT-116, read-out: pGI50 (converted)): 0.813 µM
- CC50 ([28]; HCT-116, read-out: pLC50 (converted)): > 100 µM
- TGI ([28]; HCT-116, read-out: pTGI): 4.9 µM
- GI50 ([29]; BT-549, read-out: pGI50 (converted)): 2.75 µM
- CC50 ([29]; BT-549, read-out: pLC50 (converted)): 57.5 µM
- TGI ([29]; BT-549, read-out: pTGI): 16.6 µM
- GI50 ([30]; read-out: pGI50 (converted)): 11.5 µM
- CC50 ([30]; read-out: pLC50 (converted)): > 100 µM
- TGI ([30]; read-out: pTGI): 64.6 µM
